Assay results taken from patent US20160304547A1, “MACROLIDE COMPOUND” (PULIKE BIOLOGICAL ENGINEERING, INC, priority 2013, published 2016).
In brackets after ≈: the same amount, converted by molar mass.

Columns and labels:
[1] = system: Streptococcus pneumoniae CMCC 31203; assay: In vivo antibacterial test, survival of infected BALB/c mice; details: BALB/c mice infected i.p. with Streptococcus pneumoniae, 5 mg per kg s.c. via neck for 3 consecutive days, deaths recorded until the seventh day; for responders at 5 mg/kg: CMCC31203, sc, 168 h, read-out: Animal survival rate
[2] = system: Actinobacillus pleuropneumoniae CVCC262; assay: MIC by mini broth dilution technique (in vitro susceptibility); type: cell-based; details: Actinobacillus pleuropneumoniae CVCC262, broth dilution; for MIC: read-out: MIC values Actinobacillus pleuropneumoniae CVCC262
Experimental: (§1) in vitro tests of susceptibility of the compounds according to the present disclosure against bacterial strains commonly used in laboratories. In accordance with the Performance Standards for Antimicrobial Disk Susceptibility Tests: Approved Standard published by the US National Committee for Clinical Laboratory Standards, the antibactetial activities of compounds prepared according to examples 5 to 187 were tested. The MICs (minimum inhibitory concentration) of the medicaments prepared according to the examples on the following bacterial strains were measured through mini broth dilution technique. Staphylococcus aureus CVCC26003, Streptococcus equines CVCC556. Actinobacillus pleuropneumoniae CVCC262, Haemophilus parasuis, and Pasteurella multocida CVCC399, which were purchased from the Control Institute of Veterinary Bioproducts and Pharmaceuticals, China. Liquid culture medium: […] Solid culture medium: […] The strains were taken out of a regrigerator at −20° C. to be revived, and were spreaded by streaking on the solid culture medium with an inoculating loop. The inoculated culture medium was cultured at 35° C. in a constant temperature incubator for 20 h. Monoclonal antibodies were selected from a well-grown culture plate and streaked on the solid culture medium. The inoculated culture medium was cultured at 35° C. in the constant temperature incubator for 20 h. […] A 96-well plate was used, and 100 μl of DMSO was added into each of wells 2 to 11, and 200 μl of ready-prepared medicament solution was added into the 1st well, 100 μl of the medicament solution was extracted from the 1st well and added into the 2nd well. Double dilution was performed until the 11th well, thereby forming 11 gradients. In this case, compound of parent plate was prepared. 3 μl of double diluted medicament solution was extracted with a 12-channel pipettor and added into wells 1-11 of a new disposable 96-well culture plate. The 12th well thereof is a controll well. For each medicament, there are two adjacent rows which are parallel. The transferred compound plate was reserved for later use. […] The dilution ratio was recorded, and the bacterial liquid for the tests was diluted according to the recorded dilution ratio. Subsequently, the bacterial suspension and the liquid culture medium were diluted in the proportion of 1:200. The diluted solution was reserved for later use.

[3] = system: Haemophilus parasuis; assay: as above; type: cell-based; details: Glaesserella parasuis; Haemophilus parasuis; broth dilution; read-out: MIC values Haemophilus parasuis
Experimental: as §1

[4] = system: Streptococcus equines CVCC556; assay: as above; type: cell-based; details: Streptococcus equines CVCC556; broth dilution; read-out: MIC values Streptococcus equines CVCC556
Experimental: as §1

[5] = system: Pasteurella multocida CVCC399; assay: as above; type: cell-based; details: Pasteurella multocida CVCC399; broth dilution; read-out: MIC values Pasteurella multocida CVCC399
Experimental: as §1

[6] = system: Staphylococcus aureus CVCC26003; assay: as above; type: cell-based; details: Staphylococcus aureus CVCC26003; broth dilution; read-out: MIC values Staphylococcus aureus CVCC26003
Experimental: in vitro tests of susceptibility of the compounds according to the present disclosure against bacterial strains commonly used in laboratories. In accordance with the Performance Standards for Antimicrobial Disk Susceptibility Tests: Approved Standard published by the US National Committee for Clinical Laboratory Standards, the antibactetial activities of compounds prepared according to examples 5 to 187 were tested. The MICs (minimum inhibitory concentration) of the medicaments prepared according to the examples on the following bacterial strains were measured through mini broth dilution technique. Staphylococcus aureus CVCC26003, Streptococcus equines CVCC556. Actinobacillus pleuropneumoniae CVCC262, Haemophilus parasuis, and Pasteurella multocida CVCC399, which were purchased from the Control Institute of Veterinary Bioproducts and Pharmaceuticals, China. Liquid culture medium: CAMHB. […] Solid culture medium: NINA prepared according to the specification of the final product. The strains were taken out of a regrigerator at −20° C. to be revived, and were spreaded by streaking on the solid culture medium with an inoculating loop. The inoculated culture medium was cultured at 35° C. in a constant temperature incubator for 20 h. Monoclonal antibodies were selected from a well-grown culture plate and streaked on the solid culture medium. The inoculated culture medium was cultured at 35° C. in the constant temperature incubator for 20 h. […] A 96-well plate was used, and 100 μl of DMSO was added into each of wells 2 to 11, and 200 μl of ready-prepared medicament solution was added into the 1st well, 100 μl of the medicament solution was extracted from the 1st well and added into the 2nd well. Double dilution was performed until the 11th well, thereby forming 11 gradients. In this case, compound of parent plate was prepared. 3 μl of double diluted medicament solution was extracted with a 12-channel pipettor and added into wells 1-11 of a new disposable 96-well culture plate. The 12th well thereof is a controll well. For each medicament, there are two adjacent rows which are parallel. The transferred compound plate was reserved for later use. […] The dilution ratio was recorded, and the bacterial liquid for the tests was diluted according to the recorded dilution ratio. Subsequently, the bacterial suspension and the liquid culture medium were diluted in the proportion of 1:200. The diluted solution was reserved for later use.

Structure (SMILES) | Animal survival rate [1] | responders at 5 mg/kg [1] [%] | MIC [2] [µg/mL] | MIC [3] [µg/mL] | MIC [4] [µg/mL] | MIC [5] [µg/mL] | MIC [6] [µg/mL] | MIC values Actinobacillus pleuropneumoniae CVCC262 [2] [ug/mi]
CCCNC[C@]1(O)[C@H](C)O[C@@H](O[C@H]2[C@H](C)[C@@H](O[C@@H]3O[C@H](C)C[C@H](N(C)C)[C@H]3O)[C@](C)(O)C[C@@H](C)NC[C@H](C)[C@@H](O)[C@](C)(O)[C@@H](CC)OC(=O)[C@@H]2C)C[C@@]1(C)OC [syzx-1] | 80% (8/10) |  |  |  |  |  |  | 
CCCCNC[C@]1(O)[C@H](C)OC(O[C@@H]2[C@@H](C)[C@@H](O[C@@H]3O[C@H](C)C[C@H](N(C)C)[C@H]3O)[C@](C)(O)C[C@@H](C)NC[C@@H](C)[C@H](O)[C@](C)(O)[C@H](CC)OC(=O)[C@@H]2C)C[C@@]1(C)OC (stereo partly drawn) [syzx-2] |  | 80 | 1 (≈ 1.22 µM) | 2 (≈ 2.44 µM) | 2 (≈ 2.44 µM) | 2 (≈ 2.44 µM) | 4 (≈ 4.88 µM) | 
CC[C@@H]1OC(=O)[C@H](C)[C@H](OC2C[C@@](C)(OC)[C@](O)(CN(CC)CC)[C@H](C)O2)[C@@H](C)[C@@H](O[C@@H]2O[C@H](C)C[C@H](N(C)C)[C@H]2O)[C@](C)(O)C[C@@H](C)NC[C@@H](C)[C@H](O)[C@]1(C)O (stereo partly drawn) [syzx-3, (2R,3S,4R,5S,8R,10R,11R,12S,13S,14R)-13-[(2,6-dideoxy-3-C -methyl-3-O-methyl-4-C-[(diethylamino)methyl]-α-L-ribopyranosyl)oxy]-2-ethyl-3,4,10-trihydroxy-3,5,8,10,12,14-hexamethyl-11-[[3,4,6-trideoxy-3-(dimethylamino)-β-D-xylo-hexopyranosy]oxy]-1-oxa-7-azacyclopentadecan-15-one] |  | 70 | 1 (≈ 1.22 µM) | 0.125 (≈ 0.152 µM) | 0.125 (≈ 0.152 µM) | 0.125 (≈ 0.152 µM) | 0.5 (≈ 0.61 µM) | 
CC[C@@H]1OC(=O)[C@H](C)[C@H](OC2C[C@@](C)(OC)[C@](O)(CN3CCOCC3)[C@H](C)O2)[C@@H](C)[C@@H](O[C@@H]2O[C@H](C)C[C@H](N(C)C)[C@H]2O)[C@](C)(O)C[C@@H](C)NC[C@@H](C)[C@H](O)[C@]1(C)O (stereo partly drawn) [syzx-5, (2R,3S,4R,5S,8R,10R,11R,12S,13S,14R)-13-[(2,6-dideoxy-3-C-methyl-3-O-methyl-4-C-[(morpholinyl)methyl]-α-L-ribopyranosyl)oxy]-2-ethyl-3,4,10-trihydroxy-3,5,8,10,12,14-hexamethyl-11-[[3,4,6-trideoxy-3-(dimethylamino)-β-D-xylo-hexopyranosy]oxy]-1-oxa-7-azacyclopentadecan-15-one] |  | 70 | 16 (≈ 19.2 µM) | 0.5 (≈ 0.599 µM) | ≤ 0.25 | 0.5 (≈ 0.599 µM) | 0.5 (≈ 0.599 µM) | 
CC[C@@H]1OC(=O)[C@H](C)[C@H](OC2C[C@@](C)(OC)[C@](O)(CNC3CC3)[C@H](C)O2)[C@@H](C)[C@@H](O[C@@H]2O[C@H](C)C[C@H](N(C)C)[C@H]2O)[C@](C)(O)C[C@@H](C)NC[C@@H](C)[C@H](O)[C@]1(C)O (stereo partly drawn) [syzx-6, (2R3S,4R5S,8R,10R,11R,12S,13S,14R)-13-[(2,6-dideoxy-3-C-methyl-3-O-methyl-4-C-[(cyclopropylamino)methyl]-α-L-ribopyranosyl)oxy]-2-ethyl-3,4,10-trihydroxy-3,5,8,10,12,14-hexamethyl-11-[[3,4,6-trideoxy-3-(dimethylamino)-β-D-xylo-hexopyranosy]oxy]-1-oso-7-azacyclopentadecan-15-one] |  | 80 | 0.125 (≈ 0.155 µM) | 0.125 (≈ 0.155 µM) | 0.125 (≈ 0.155 µM) | 0.125 (≈ 0.155 µM) | 0.125 (≈ 0.155 µM) | 
CCNC[C@]1(O)[C@H](C)OC(O[C@@H]2[C@@H](C)[C@@H](O[C@@H]3O[C@H](C)C[C@H](N(C)C)[C@H]3O)[C@](C)(O)C[C@@H](C)NC[C@@H](C)[C@H](O)[C@](C)(O)[C@H](CC)OC(=O)[C@@H]2C)C[C@@]1(C)OC (stereo partly drawn) [syzx-10, (2R,3S,4R,5S,8R,10R,11R,12S,13S,14R)-13-[(2,6-dideoxy-3-C-methyl-3-O-methyl-4-C-[(ethylamino)methyl]-α-L-ribopyranosyl)oxy]-2-ethyl-3,4,10-trihydroxy-3,5,8,10,12,14-hexamethyl-11-[[3,4,6-trideoxy-3-(dimethylamino)-β-D-xylo-hexopyranosy]oxy]-1-oxa-7-azacycopentadecan-15-one] |  | 90 | 0.5 (≈ 0.631 µM) | 1 (≈ 1.26 µM) | 0.5 (≈ 0.631 µM) | ≤ 0.25 | 0.5 (≈ 0.631 µM) | 
CC[C@@H]1OC(=O)[C@H](C)[C@H](OC2C[C@@](C)(OC)[C@](O)(CNC(C)C)[C@H](C)O2)[C@@H](C)[C@@H](O[C@@H]2O[C@H](C)C[C@H](N(C)C)[C@H]2O)[C@](C)(O)C[C@@H](C)NC[C@@H](C)[C@H](O)[C@]1(C)O (stereo partly drawn) [syzx-11] |  | 70 | 0.5 (≈ 0.62 µM) | 0.5 (≈ 0.62 µM) | ≤ 0.25 | ≤ 0.25 | ≤ 0.25 | 
CC[C@@H]1OC(=O)[C@H](C)[C@H](OC2C[C@@](C)(OC)[C@](O)(CNCCOC)[C@H](C)O2)[C@@H](C)[C@@H](O[C@@H]2O[C@H](C)C[C@H](N(C)C)[C@H]2O)[C@](C)(O)C[C@@H](C)NC[C@@H](C)[C@H](O)[C@]1(C)O (stereo partly drawn) [syzx-25, (2R,3S,4R,5S,8R,10R,11R,12S,13S,14R)-13-[(2,6-dideoxy-3-C-methyl-3-O-methyl-4-C-[(2-methoxyethyl)amino-methyl]-α-L-ribopyranosyl)oxy]-2-ethyl-3,4,10-trihydroxy-3,5,8,10,12,14-hexamethyl-11-[[3,4,6-trideoxy-3-(dimethylamino)-β-D-xylo-hexopyranosy]oxy]-1-oxa-7-azacyclopentadecan-15-one] |  |  | 16 (≈ 19.5 µM) | ≤ 0.25 | ≤ 0.25 | ≤ 0.25 | ≤ 0.25 | 
CC[C@@H]1OC(=O)[C@H](C)[C@H](OC2C[C@@](C)(OC)[C@](O)(CNCCOC)[C@H](C)O2)[C@@H](C)[C@@H](O[C@@H]2O[C@H](C)C[C@H](N(C)C)[C@H]2O)[C@](C)(O)C[C@@H](C)NC[C@@H](C)[C@H](O)[C@]1(C)O (stereo partly drawn) [syzx-58] |  | 80 |  |  |  |  |  | 16
CCCNC[C@]1(O)[C@H](C)O[C@@H](O[C@H]2[C@H](C)[C@@H](O[C@@H]3O[C@H](C)C[C@H](N(C)C)[C@H]3O)[C@](C)(O)C[C@@H](C)N(CCC)C[C@H](C)[C@@H](O)[C@](C)(O)[C@@H](CC)OC(=O)[C@@H]2C)C[C@@]1(C)OC [syzx-101, (2R,3S,4R,5S,8R,10R,11R,12S,13S,14R)-13-[(2,6-dideoxy-3-C-methyl-3-O-methyl-4-C-[(n-propyl-amino)methyl]-α-L-ribopyranosyl)oxy]-2-ethyl-3,4,10-trihydroxy-3,5,8,10,12,14-hexamethyl-7-propyl-11-[[3,4,6-trideoxy-3-(dimethylamino)-β-D-xylo-hexopyranosy]oxy]-1-oxa-7-azacyclopentadecan-15-one] | 90% (9/10) |  |  |  |  |  |  | 
